Earlier results, collected in patent US20210214291A1, “Rapid Thermal Isomerization of Lycopene” (priority 2020, published 2021).
Where two headings read alike, the source gives them in different places.

Key:
[1] = tested on: super oxide dismutase (SOD) activity; settings: for increase in SOD activity: patients
[2] = organic solvents, 24 hrs

Row | increase in SOD activity ([1]; daily 6 mg for 8 wks) [units per milliliter] | increase in SOD activity ([1]; daily 15 mg for 8 wks) [units per milliliter] | isomerization ratio to the cis-isomer ([2]; 4 C) [%] | isomerization ratio to the cis-isomer ([2]; 50 C) [%] | Structure (SMILES) | reduction in C-reactive protein (CRP) levels ([1]; high dose group (15 mg daily, 8 wks)) [%]
1 | 1.73 | 2.37 | – | – | CC(C)=CCC/C(C)=C/C=C/C(C)=C/C=C/C(C)=C/C=C/C=C(C)/C=C/C=C(C)/C=C/C=C(\C)CCC=C(C)C [lycopene] | 57
2 | – | – | 11.4 | 77.8 | CC(C)=CCC/C(C)=C/C=C/C(C)=C/C=C/C(C)=C/C=C/C=C(C)/C=C/C=C(C)/C=C/C=C(\C)CCC=C(C)C [trans-lycopene] | –
